Laboratory results reported in patent publication US6605619B1, “Nitroxides as protectors against oxidatives stress” (The United States of America as represented by the …, priority 1992, dated 2003).

B1: catalase: catalase (CAT), enzyme that can convert H2O2 to H2O (protein, UniProt P00432 2-527, looked up)
Catalase: ADNRDPASDQMKHWKEQRAAQKPDVLTTGGGNPVGDKLNSLTVGPRGPLLVQDVVFTDEMAHFDRERIPERVVHAKGAGAFGYFEVTHDITRYSKAKVFEHIGKRTPIAVRFSTVAGESGSADTVRDPRGFAVKFYTEDGNWDLVGNNTPIFFIRDALLFPSFIHSQKRNPQTHLKDPDMVWDFWSLRPESLHQVSFLFSDRGIPDGHRHMNGYGSHTFKLVNANGEAVYCKFHYKTDQGIKNLSVEDAARLAHEDPDYGLRDLFNAIATGNYPSWTLYIQVMTFSEAEIFPFNPFDLTKVWPHGDYPLIPVGKLVLNRNPVNYFAEVEQLAFDPSNMPPGIEPSPDKMLQGRLFAYPDTHRHRLGPNYLQIPVNCPYRARVANYQRDGPMCMMDNQGGAPNYYPNSFSAPEHQPSALEHRTHFSGDVQRFNSANDDNVTQVRTFYLKVLNEEQRKRLCENIAGHLKDAQLFIQKKAVKNFSDVHPEYGSRIQALLDKYNEEKPKNAVHTYVQHGSHLSAREKANL

Experiments:
[1] = system: Chinese hamster V79 cells; assay: Protection of cells exposed to HX/XO, clonogenic survival; format: cell-based; conditions: for cell survival / protection from HX/XO: 0.05 U/ml XO + 0.5 mM HX, 37° C., 5 mM nitroxide, 100 U/ml catalase, SOD, 500 μM DF preincubated 2 h
Protocol: Chinese hamster V79 cells were grown in F12 medium supplemented with 10% fetal calf serum, penicillin, and streptomycin. Survival was assessed in all studies by the clonogenic assay. The plating efficiency range between 80-90%. Stock cultures of exponentially growing cells were trypsinized, rinsed, and plated (5×10^5 cells/dish) into a number of 100 mm petri dishes and incubated 16 h at 37° C. prior to experimental protocols. Cells were exposed for 1 h at 37° C. to either 0.5 mM hypoxanthine (HX)+0.05 U/ml of xanthine oxidase (XO) for varying lengths of time, or to H2O2 at different concentrations. To assess possible modulation in cytotoxicity, catalase, 100 U/ml; SOD, 100 μg/ml; DF, 500 μM; and 5 mM of each of the nitroxides from Table 1 were added to parallel cultures. CHD was prepared in a stock solution in ethanol and diluted into medium such that the final concentration was 5 mM. […] TEMPOL is water soluble and was prepared directly in tissue culture medium. […] DF was added either 2 h prior to or during treatment while the other agents were present only during HX/XO or H2O2 treatment. Following treatment, cells were rinsed, trypsinized, counted, and plated for macroscopic colony formation. For each dose determination cells were plated in triplicate and the experiments were repeated a minimum of two times. Plates were incubated 7 days, after which colonies were fixed with methanol/acetic acid, stained with crystal violet, and counted. Colonies containing >50 cells were scored. Error bars represent S.D. of the mean and are shown when larger than the symbol.

[2] = system: Chinese hamster V79 cells; assay: Protection of cells exposed to H2O2 under hypoxic conditions; format: cell-based; conditions: 600 μM H2O2, 1 h, 37° C.
Protocol: Some studies required exposure to H2O2 under hypoxic conditions. For these studies, cells dispersed in 1.8 ml of medium were plated into specially designed glass flasks (Russo et al, Radiat. Res., 103, 232-239, 1985). The flasks were sealed with soft rubber stoppers, and 19-gauge needles were pushed through to act as entrance and exit ports for a humidified gas mixture of 95% nitrogen/5% CO2 (Matheson Gas Products). […] Stoppered flasks were connected in series and mounted on a reciprocating platform and gassed at 37° C. for 45 min. […] After 45 min of gassing, the hypoxic H2O2 solution was added to the cell monolayer culture. The cells were exposed to H2O2 for 1 h under hypoxic conditions. N2 gas flow was maintained during the H2O2 exposure. In parallel flasks, DF and CHD were added as described above, and were present during the entire gassing procedure. Following treatment, cell survival was assessed as described above.

[3] = comparison value for native SOD; cited from earlier work

Molecule	cell survival / protection from HX/XO [1]	protection from HX/XO, DF added simultaneously ([1]; DF addition simultaneously with HX/XO (data not shown))	protection against H2O2 cytotoxicity under hypoxic conditions [2]	kcat of native SOD [3] [M⁻¹ s⁻¹]
CC(=O)N(O)CCCCCNC(=O)CCC(=O)N(O)CCCCCNC(=O)CCC(=O)N(O)CCCCCN [DF, Desferrioxamine, reference compound]	complete protection	only partial protection	complete protection	
SOD: superoxide dismutase (SOD), obtained from Sigma	not altered			2.3e+09
B1	complete protection			
